In patent publication US20240199702A1, “CELL-PERMEABLE CYCLIC PEPTIDES AND USES THEREOF” (Unnatural Products Inc., priority 2021, published 2024):
*1 amine or outer side, *2 acyl side, *3 side chain or, on linkers, in order; H or OH if unused. Where a SMILES comes first, the peptide text is derived from it. [ ]: non-standard residue; d: D form. Ala(4-thiazolyl) = N[C@@H](Cc1cscn1)C(=O)O; NMePhe(4-F) = CN[C@@H](Cc1ccc(F)cc1)C(=O)O; NMeAla(cPent) = CN[C@@H](CC1CCCC1)C(=O)O; Phe(4-Cl) = N[C@@H](Cc1ccc(Cl)cc1)C(=O)O; Phe(4-F) = N[C@@H](Cc1ccc(F)cc1)C(=O)O; X2 = CC1(C)CN([*:1])[C@@H]1C(=O)[*:2]; Ala(cPent) = N[C@@H](CC1CCCC1)C(=O)O; NMeCba = CN[C@@H](CC1CCC1)C(=O)O; NMeF = CN[C@@H](Cc1ccccc1)C(=O)O; NMeI = CC[C@H](C)[C@H](NC)C(=O)O; NMeT = CN[C@H](C(=O)O)[C@@H](C)O; Cba = N[C@@H](CC1CCC1)C(=O)O; hSer = N[C@@H](CCO)C(=O)O; NMeA = CN[C@@H](C)C(=O)O; dNMeA = CN[C@H](C)C(=O)O; Nme = COCCNCC(=O)O; Sar = CNCC(=O)O

Legend:
Human MDM2 (HDM2) 1-116 = target: T1, Human MDM2 (HDM2) 1-116 (Homo sapiens, UniProt Q00987); assay: Fluorescence Polarization Assay 1 (MDM2/p53 peptide); format: binding; settings: FAM-labeled p53 peptide, 60 minutes
T1 construct: Human MDM2 (HDM2) 1-116
Description: Fluorescence Polarization Assay 1
(§1) Human MDM2 (HDM2) 1-116 (20 μL) and FAM-labeled GGTSFAEYWNLLSP-NH2, 10 nM and 5 nM respectively in 10 mM Tris, 50 mM NaCl, 0.01% Tween20, and 1 mM DTT at pH 7.4 were dispensed into an opaque, black, 384 well plate. Compounds dissolved in DMSO were pin transferred (˜100-200 nL) to the 384 well plate containing the MDM2/p53 solution. After incubation for 60 minutes, the fluorescence polarization was read on a Molecular Devices SpectraMax plate reader equipped with a Fluorescein FP cartridge. In addition to probe alone (positive control) and probe/MDM2 (negative control), a titration of linear p53(18-26) was included on every plate as an additional control. IC50 values were fit using either Prism or Collaborative Drug Discovery.

Human MDM4 (HDM4) 1-114 = target: T2, Human MDM4 (HDM4) 1-114 (Homo sapiens, UniProt O15151); assay: Fluorescence Polarization Assay 2 (MDM4/p53 peptide); format: binding; settings: FAM-labeled p53 peptide, 60 minutes
T2 construct: Human MDM4 (HDM4) 1-114
T2 sequence (O15151 1-114): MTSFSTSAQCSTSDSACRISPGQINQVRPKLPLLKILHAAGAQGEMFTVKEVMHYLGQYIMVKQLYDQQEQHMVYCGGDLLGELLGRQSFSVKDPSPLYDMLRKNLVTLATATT
Description: Fluorescence Polarization Assay 2
as §1, with “MDM4 (HDM4) 1-114” for “MDM2 (HDM2) 1-116”, “GGTSFAEYWNLLSP —NH2, 20” for “GGTSFAEYWNLLSP-NH2, 10”, “(−100-200” for “(˜100-200”, “MDM4/p53” for “MDM2/p53”, “probe/MDM4” for “probe/MDM2”

MOLM-13 cells = assay: Cellular Fluorescence Assay 1 (CellTiter-Glo, 72 hours); format: cell-based
Description: Cellular Fluorescence Assay 1
(§2) MOLM-13 cells were grown in suspension in T75 flasks in RPMI medium with 10% fetal bovine serum (FBS) at 37° C. with 5% CO2. 40 μL ofMOLM-13 cells were plated into columns 1-22 of white, flat bottom, 384 well plates at a density of 1,000 cells per well in RPMI with 10% FBS. Columns 23 and 24 were filled with 40 μL of media as a positive control. 100 nL of compounds dissolved in DMSO were pin transferred into columns 3-22 of the 384 well plate. Columns 1 and 2 served as negative control wells. Plates were incubated for 72 hours at 37° C. with 5% CO2. After incubation, the cells were given 10 μL of CellTiter-Glo® (Promega®). Luminescence was read on a Molecular Devices SpectraMax i3x plate reader.

MV4-11 cells = assay: Cellular Fluorescence Assay 2 (CellTiter-Glo, 72 hours); format: cell-based
Description: Cellular Fluorescence Assay 2
as §2, with “MV4-11” for “MOLM-13”, “of MV4-11” for “ofMOLM-13”

T1 sequence (Q00987 1-116): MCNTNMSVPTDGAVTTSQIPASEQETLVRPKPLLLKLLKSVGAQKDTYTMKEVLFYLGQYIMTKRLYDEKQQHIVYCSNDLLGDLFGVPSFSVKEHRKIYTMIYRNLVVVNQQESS

IC50 (Human MDM2 (HDM2) 1-116) | IC50 (Human MDM4 (HDM4) 1-114) | IC50 (MOLM-13 cells) | IC50 (MV4-11 cells) | Compound
< 0.025 µM | 0.05 to 0.1 µM |  |  | COCC[C@@H]1NC(=O)[C@H]2CCCN2C(=O)[C@H](Cc2ccccc2)N(C)C(=O)[C@H](Cc2ccc(Cl)cc2)NC(=O)[C@H](CC2CCC2)N(C)C(=O)[C@H](Cc2ccc(F)cc2)NC(=O)CN(CCOC)C(=O)[C@@H](C)N(C)C(=O)[C@H](Cc2cscn2)NC(=O)[C@H](C)N(C)C1=O [compound 9] (cyclo([Ala(4-thiazolyl)][dNMeA][Nme][Phe(4-F)][NMeCba][Phe(4-Cl)][NMeF][dP][hSer](Me)[NMeA]))
< 0.025 µM | ≥ 0.1 µM |  |  | COCC[C@@H]1NC(=O)[C@H]2CCCN2C(=O)[C@H](Cc2ccccc2)N(C)C(=O)[C@H](Cc2ccc(Cl)cc2)NC(=O)[C@H](CC2CCCC2)N(C)C(=O)[C@H](Cc2ccc(F)cc2)NC(=O)CN(CCOC)C(=O)[C@@H](C)N(C)C(=O)[C@H](Cc2cscn2)NC(=O)[C@H](C)N(C)C1=O [compound 10] (cyclo([Ala(4-thiazolyl)][dNMeA][Nme][Phe(4-F)][NMeAla(cPent)][Phe(4-Cl)][NMeF][dP][hSer](Me)[NMeA]))
< 0.025 µM | < 0.025 µM | ≥ 0.15 µM | 0.1 to 0.15 µM | COCC[C@@H]1NC(=O)[C@H]2CCCN2C(=O)[C@H](Cc2ccc(F)cc2)N(C)C(=O)[C@H](Cc2ccc(Cl)cc2)NC(=O)[C@H]2N(CC2(C)C)C(=O)[C@H](Cc2ccc(F)cc2)NC(=O)CN(CCOC)C(=O)[C@@H](C)N(C)C(=O)[C@H](Cc2cscn2)NC(=O)[C@H](C)N(C)C1=O [compound 11] (cyclo([Ala(4-thiazolyl)][dNMeA][Nme][Phe(4-F)][X2][Phe(4-Cl)][NMePhe(4-F)][dP][hSer](Me)[NMeA]))
< 0.025 µM | < 0.025 µM |  |  | COCC[C@@H]1NC(=O)[C@H]2CCCN2C(=O)[C@H](Cc2ccccc2)N(C)C(=O)[C@H](Cc2ccc(Cl)cc2)NC(=O)[C@H]([C@@H](C)OC)NC(=O)[C@H](Cc2ccc(F)cc2)NC(=O)CN(CCOC)C(=O)[C@@H](C)N(C)C(=O)[C@H](Cc2cscn2)NC(=O)[C@H](C)N(C)C1=O [compound 12] (cyclo([Ala(4-thiazolyl)][dNMeA][Nme][Phe(4-F)]T(Me)[Phe(4-Cl)][NMeF][dP][hSer](Me)[NMeA]))
< 0.025 µM | 0.025 to 0.05 µM |  |  | COCC[C@@H]1NC(=O)[C@H]2CCCN2C(=O)[C@H](Cc2ccccc2)N(C)C(=O)[C@H](Cc2ccc(Cl)cc2)NC(=O)[C@H](C(C)C)NC(=O)[C@H](Cc2ccc(F)cc2)NC(=O)CN(C)C(=O)[C@@H](C)N(C)C(=O)[C@H](Cc2cscn2)NC(=O)[C@H](C)N(C)C1=O [compound 13] (cyclo([Ala(4-thiazolyl)][dNMeA][Sar][Phe(4-F)]V[Phe(4-Cl)][NMeF][dP][hSer](Me)[NMeA]))
< 0.025 µM | 0.025 to 0.05 µM |  |  | COCC[C@@H]1NC(=O)[C@H]2CCCN2C(=O)[C@H](Cc2ccccc2)N(C)C(=O)[C@H](Cc2ccc(Cl)cc2)NC(=O)[C@H](CC2CCC2)NC(=O)[C@H](Cc2ccc(F)cc2)NC(=O)CN(CCOC)C(=O)[C@@H](C)N(C)C(=O)[C@H](C)N(C)C1=O [compound 14] (cyclo([Cba][Phe(4-Cl)][NMeF][dP][hSer](Me)[NMeA][dNMeA][Nme][Phe(4-F)]))
< 0.025 µM | 0.05 to 0.1 µM |  |  | COCC[C@@H]1NC(=O)[C@H]2CCCN2C(=O)[C@H](Cc2ccccc2)N(C)C(=O)[C@H](Cc2ccc(Cl)cc2)NC(=O)[C@H](CC2CCCC2)NC(=O)[C@H](Cc2ccc(F)cc2)NC(=O)CN(CCOC)C(=O)[C@@H](C)N(C)C(=O)[C@H](C)N(C)C1=O [compound 15] (cyclo([Ala(cPent)][Phe(4-Cl)][NMeF][dP][hSer](Me)[NMeA][dNMeA][Nme][Phe(4-F)]))
< 0.025 µM | 0.025 to 0.05 µM |  |  | CC[C@H](C)[C@@H]1NC(=O)[C@H](Cc2ccc(F)cc2)NC(=O)CN(CCOC)C(=O)[C@@H](C)N(C)C(=O)[C@H](Cc2cscn2)NC(=O)[C@H](C)N(C)C(=O)[C@H](CCOC)NC(=O)[C@H]2CCCN2C(=O)[C@H](Cc2ccccc2)N(C)C(=O)[C@H](Cc2ccc(Cl)cc2)NC1=O [compound 16] (cyclo([Ala(4-thiazolyl)][dNMeA][Nme][Phe(4-F)]I[Phe(4-Cl)][NMeF][dP][hSer](Me)[NMeA]))
< 0.025 µM | ≥ 0.1 µM |  |  | CC[C@H](C)[C@H]1C(=O)N[C@@H](Cc2ccc(Cl)cc2)C(=O)N(C)[C@@H](Cc2ccccc2)C(=O)N2CCC[C@@H]2C(=O)N[C@@H](CCOC)C(=O)N(C)[C@@H](C)C(=O)N[C@@H](Cc2cscn2)C(=O)N(C)[C@H](C)C(=O)N(CCOC)CC(=O)N[C@@H](Cc2ccc(F)cc2)C(=O)N1C [compound 17] (cyclo([Ala(4-thiazolyl)][dNMeA][Nme][Phe(4-F)][NMeI][Phe(4-Cl)][NMeF][dP][hSer](Me)[NMeA]))
< 0.025 µM | 0.025 to 0.05 µM |  |  | COCC[C@@H]1NC(=O)[C@H]2CCCN2C(=O)[C@H](Cc2ccccc2)N(C)C(=O)[C@H](Cc2ccc(Cl)cc2)NC(=O)[C@H]([C@@H](C)O)NC(=O)[C@H](Cc2ccc(F)cc2)NC(=O)CN(CCOC)C(=O)[C@@H](C)N(C)C(=O)[C@H](Cc2cscn2)NC(=O)[C@H](C)N(C)C1=O [compound 18] (cyclo([hSer](Me)[NMeA][Ala(4-thiazolyl)][dNMeA][Nme][Phe(4-F)]T[Phe(4-Cl)][NMeF][dP]))
< 0.025 µM | 0.05 to 0.1 µM |  |  | COCC[C@@H]1NC(=O)[C@H]2CCCN2C(=O)[C@H](Cc2ccccc2)N(C)C(=O)[C@H](Cc2ccc(Cl)cc2)NC(=O)[C@H]([C@@H](C)O)N(C)C(=O)[C@H](Cc2ccc(F)cc2)NC(=O)CN(CCOC)C(=O)[C@@H](C)N(C)C(=O)[C@H](Cc2cscn2)NC(=O)[C@H](C)N(C)C1=O [compound 19] (cyclo([Ala(4-thiazolyl)][dNMeA][Nme][Phe(4-F)][NMeT][Phe(4-Cl)][NMeF][dP][hSer](Me)[NMeA]))
< 0.025 µM | 0.05 to 0.1 µM |  |  | COCC[C@@H]1NC(=O)[C@H]2CCCN2C(=O)[C@H](Cc2ccccc2)N(C)C(=O)[C@H](Cc2ccc(Cl)cc2)NC(=O)[C@H]([C@@H](C)OC)N(C)C(=O)[C@H](Cc2ccc(F)cc2)NC(=O)CN(CCOC)C(=O)[C@@H](C)N(C)C(=O)[C@H](Cc2cscn2)NC(=O)[C@H](C)N(C)C1=O [compound 20] (cyclo([Ala(4-thiazolyl)][dNMeA][Nme][Phe(4-F)][NMeT](Me)[Phe(4-Cl)][NMeF][dP][hSer](Me)[NMeA]))
